Where a SMILES comes first, the peptide text is derived from it. Bridges are numbered along the chain shown (N, C = ends). [ ]: non-standard residue; d: D form. R8 = C=CCCCCCC[C@@](C)(N)C(=O)O; S5 = C=CCCC[C@](C)(N)C(=O)O; Ac3c = NC1(C(=O)O)CC1; Aib = CC(C)(N)C(=O)O
Legend:
SJSA-1 cells = assay: Cell lysis by peptidomimetic macrocycles (LDH release); format: cell-based; details: 1 h at 37C
MDMX = biological target: T1, MDMX (Homo sapiens, UniProt O15151); assay: Competitive fluorescence polarization assay for MDMX; format: binding; details: competitive FP assay; for IC50: read-out: IC50 (MDMX); for Ki: read-out: Ki (MDMX)
T1 sequence (O15151 1-125): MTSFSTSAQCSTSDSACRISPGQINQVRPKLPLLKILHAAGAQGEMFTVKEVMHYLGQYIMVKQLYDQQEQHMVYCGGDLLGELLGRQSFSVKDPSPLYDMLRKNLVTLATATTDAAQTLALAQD

MDM2 = MDM2 (Homo sapiens, UniProt Q00987); assay: Competitive fluorescence polarization assay for MDM2; format: binding; details: competitive FP assay, MDM2; for IC50: read-out: IC50 (MDM2); for Ki: read-out: Ki (MDM2)
MDM2, sequence (Q00987 1-125): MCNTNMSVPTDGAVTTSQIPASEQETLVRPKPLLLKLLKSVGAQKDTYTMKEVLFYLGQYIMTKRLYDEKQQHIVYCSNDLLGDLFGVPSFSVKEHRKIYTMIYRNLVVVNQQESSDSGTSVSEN

Caspase 3 = Caspase 3 detection assay in SJSA1 cells; format: cell-based; details: 48 h, Caspase 3 activation over DMSO-treated cells

IC50 (MDMX) [nM]	Ki (MDMX) [nM]	IC50 (MDM2) [nM]	Ki (MDM2) [nM]	SMILES	6.25 uM % Lysed cells (1 h LDH) (SJSA-1 cells) [%]	25 uM % Lysed cells (1 h LDH) (SJSA-1 cells) [%]	50 uM % Lysed cells (1 h LDH) (SJSA-1 cells) [%]	caspase 0.3 uM (Caspase 3; 0.3 uM peptide)	caspase 3 uM (Caspase 3; 3 uM peptide)	caspase 10 uM (Caspase 3; 10 uM peptide)	caspase 30 uM (Caspase 3; 30 uM peptide)
100 to 1000	10 to 100			CCCCCC(=O)N[C@@H](CC(C)C)C(=O)N[C@H](C(=O)N[C@@H](Cc1ccccc1)C(=O)N[C@]1(C)CCCCCCC=CCCC[C@@](C)(C(=O)N[C@@H](CO)C(=O)N[C@@H](C)C(=O)N[C@@H](C)C(N)=O)NC(=O)[C@H](CCC(C)C)NC(=O)[C@H](CCC(N)=O)NC(=O)[C@H](C)NC(=O)[C@H](Cc2c[nH]c3ccccc23)NC(=O)[C@H](Cc2ccc(O)cc2)NC(=O)[C@H](CCC(=O)O)NC1=O)[C@@H](C)O [compound 280]	5	6	18				
100 to 1000	10 to 100	< 10	< 10	CC[C@H](C)[C@H](NC(=O)[C@H](C)NC(=O)[C@H](C)NC(=O)[C@]1(C)CCCC=CCCCCCC[C@@](C)(NC(=O)[C@H](Cc2ccccc2)NC(=O)[C@@H](NC(=O)[C@H](CC(C)C)NC(C)=O)[C@@H](C)O)C(=O)N[C@@H](C)C(=O)N[C@@H](Cc2ccc(C(=O)O)cc2)C(=O)N[C@@H](Cc2c[nH]c3ccccc23)C(=O)N[C@@H](C)C(=O)N[C@@H](CCC(N)=O)C(=O)N[C@@H](CC(C)C)C(=O)N1)C(=O)N[C@H](C)C(N)=O (single isomer, unassigned) [compound 182]	0	3	6				
				CC[C@H](C)[C@H](NC(=O)[C@H](C)NC(=O)[C@H](C)NC(=O)[C@]1(C)CCCC=CCCCCCC[C@@](C)(NC(=O)[C@H](Cc2ccccc2)NC(=O)[C@@H](NC(=O)[C@H](CC(C)C)NC(C)=O)[C@@H](C)O)C(=O)N[C@@H](CCC(=O)O)C(=O)N[C@@H](Cc2ccc(C(=O)O)cc2)C(=O)N[C@@H](Cc2c[nH]c3cc(Cl)ccc23)C(=O)N[C@@H](C)C(=O)N[C@@H](CCC(N)=O)C(=O)N[C@@H](CC2CCC2)C(=O)N1)C(=O)N[C@H](C)C(N)=O (single isomer, unassigned) [compound 335]	0	0	1				
				CC(=O)N[C@@H](CC(C)C)C(=O)N[C@H](C(=O)N[C@@H](Cc1ccccc1)C(=O)N[C@]1(C)CCCCCCC=CCCC[C@@](C)(C(=O)N[C@@H](C)C(=O)N[C@@H](Cc2c[nH]cn2)C(=O)N[C@@H](Cc2ccccc2)C(=O)N[C@@H](C)C(N)=O)NC(=O)[C@H](CC(C)C)NC(=O)[C@H](CCC(N)=O)NC(=O)[C@H](C(C)C)NC(=O)[C@H](Cc2c[nH]c3ccccc23)NC(=O)[C@H](Cc2c[nH]cn2)NC(=O)[C@H](C)NC1=O)[C@@H](C)O [compound 190] (Ac-LTF[R8]AHWVQL[S5]AHFA-NH2; staple 4-11)	−1	0	1				
10 to 100	10 to 100	10 to 100	< 10	CC(=O)N[C@@H](Cc1ccccc1)C(=O)N[C@]1(C)CCCCCCC=CCCC[C@@](C)(C(=O)N[C@@H](C)C(=O)N[C@@H](C)C(=O)NC(C)(C)C(N)=O)NC(=O)[C@H](CC(C)C)NC(=O)C2(CC2)NC(=O)[C@H](CCC(=O)O)NC(=O)[C@H](Cc2c[nH]c3ccccc23)NC(=O)[C@H](Cc2ccc(O)cc2)NC(=O)[C@H](C)NC1=O [compound 22] (Ac-F[R8]AYWE[Ac3c]L[S5]AA[Aib]-NH2; staple 2-9)	0	0	0				
100 to 1000	10 to 100			CC(=O)N[C@@H](CC(C)C)C(=O)N[C@H](C(=O)N[C@@H](Cc1ccccc1)C(=O)N[C@]1(C)CCCCCCC=CCCC[C@@](C)(C(=O)N[C@@H](CO)C(=O)N[C@@H](C)C(=O)N[C@@H](C)C(N)=O)NC(=O)[C@H](C2CCCC2)NC(=O)[C@H](CCC(N)=O)NC(=O)[C@H](C)NC(=O)[C@H](Cc2c[nH]c3ccccc23)NC(=O)[C@H](Cc2ccc(O)cc2)NC(=O)[C@H](CCC(=O)O)NC1=O)[C@@H](C)O (single isomer, unassigned) [compound 150]	−1	0	2				
				CC(=O)N[C@@H](CCC(=O)O)C(=O)N[C@H](C(=O)N[C@@H](Cc1ccccc1)C(=O)N[C@]1(C)CCCCCCC=CCCC[C@@](C)(C(=O)N[C@@H](C)C(=O)N[C@@H](C)C(=O)N[C@@H](C)C(=O)N[C@@H](C)C(=O)N[C@@H](C)C(=O)N[C@H](C)C(N)=O)NC(=O)[C@H](CC(C)C)NC(=O)[C@H](CCC(N)=O)NC(=O)[C@H](C)NC(=O)[C@H](Cc2c[nH]c3ccccc23)NC(=O)[C@H](Cc2ccc(O)cc2)NC(=O)[C@H](CCC(=O)O)NC1=O)[C@@H](C)O (single isomer, unassigned) [compound 340]	0	0	0				
10 to 100	10 to 100			CC(C)CC[C@@H]1NC(=O)[C@H](CCC(N)=O)NC(=O)[C@H](C)NC(=O)[C@H](Cc2c[nH]c3ccccc23)NC(=O)[C@H](Cc2ccc(O)cc2)NC(=O)[C@H](CCC(=O)O)NC(=O)[C@](C)(NC(=O)[C@H](Cc2ccccc2)NC(=O)[C@@H](NC(=O)[C@H](CC(C)C)NC(=O)CN(C)C)[C@@H](C)O)CCCCCCC=CCCC[C@@](C)(C(=O)N[C@@H](CO)C(=O)N[C@@H](C)C(=O)N[C@@H](C)C(N)=O)NC1=O [compound 279]	6	5	6				
				CC(=O)N[C@@H](CC(C)C)C(=O)N[C@H](C(=O)N[C@@H](Cc1ccccc1)C(=O)N[C@]1(C)CCCCCCC=CCCC[C@@](C)(C(=O)N[C@@H](C)C(=O)N[C@H](C(=O)NCC(N)=O)C(C)C)NC(=O)[C@H](CC(C)C)NC(=O)[C@H](CCC(N)=O)NC(=O)[C@H](C)NC(=O)[C@H](Cc2c[nH]c3ccccc23)NC(=O)[C@H](Cc2ccc(O)cc2)NC(=O)[C@H](C)NC1=O)[C@@H](C)O (single isomer, unassigned) [compound 108]	0	0	1				
				CC[C@H](C)[C@H](NC(=O)[C@H](C)NC(=O)[C@H](C)NC(=O)[C@]1(C)CCCC=CCCCCCC[C@@](C)(NC(=O)[C@H](Cc2ccccc2)NC(=O)[C@@H](NC(=O)[C@H](CCC(=O)O)NC(C)=O)[C@@H](C)O)C(=O)N[C@@H](CCC(=O)O)C(=O)N[C@@H](Cc2c[nH]cn2)C(=O)N[C@@H](Cc2c[nH]c3ccccc23)C(=O)N[C@@H](C)C(=O)N[C@@H](CCC(N)=O)C(=O)N[C@@H](CC(C)C)C(=O)N1)C(=O)N[C@H](C)C(N)=O (single isomer, unassigned) [compound 174]	5	2	5				
				CC[C@H](C)[C@H](NC(=O)[C@H](C)NC(=O)[C@H](C)NC(=O)[C@]1(C)CCCC=CCCCCCC[C@@](C)(NC(=O)[C@H](Cc2ccccc2)NC(=O)[C@@H](NC(=O)[C@H](CC(C)C)NC(C)=O)[C@@H](C)O)C(=O)N[C@@H](C)C(=O)N[C@@H](Cc2ccc(O)cc2)C(=O)N[C@@H](Cc2c[nH]c3ccccc23)C(=O)N[C@@H](C)C(=O)N[C@@H](CCC(N)=O)C(=O)N[C@@H](CC(C)C)C(=O)N1)C(=O)N[C@H](CC(C)C)C(N)=O (single isomer, unassigned) [compound 82]	0	0	1				
				CCCC[C@H](NC(=O)[C@H](C)NC(=O)[C@H](C)NC(=O)[C@]1(C)CCCC=CCCCCCC[C@@](C)(NC(=O)[C@H](Cc2ccccc2)NC(=O)[C@@H](NC(=O)[C@H](CC(C)C)NC(C)=O)[C@@H](C)O)C(=O)N[C@@H](C)C(=O)N[C@@H](Cc2ccc(O)cc2)C(=O)N[C@@H](Cc2c[nH]c3ccccc23)C(=O)N[C@@H](Cc2cc(=O)oc3cc(OC)c(OC)cc23)C(=O)N[C@@H](CCC(N)=O)C(=O)N[C@@H](CC(C)C)C(=O)N1)C(=O)N[C@@H](C)C(N)=O [compound 415]	4	2	2				
100 to 1000	10 to 100	< 10	< 10	CC(=O)N[C@@H](CCC(=O)O)C(=O)N[C@H](C(=O)N[C@@H](Cc1ccccc1)C(=O)N[C@]1(C)CCCCCCC=CCCC[C@@](C)(C(=O)N[C@@H](CO)C(=O)N[C@@H](CC(C)C)C(=O)N[C@@H](C)C(N)=O)NC(=O)[C@H](CC(C)C)NC(=O)[C@H](CCC(N)=O)NC(=O)[C@H](C)NC(=O)[C@H](Cc2c[nH]c3ccccc23)NC(=O)[C@H](Cc2ccc(O)cc2)NC(=O)[C@H](C(C)C)NC1=O)[C@@H](C)O [compound 127] (Ac-ETF[R8]VYWAQL[S5]SLA-NH2; staple 4-11)				1	1	4	13
100 to 1000	10 to 100			CC(C)CC[C@@H]1NC(=O)[C@H](CCC(N)=O)NC(=O)[C@H](C)NC(=O)[C@H](Cc2c[nH]c3ccccc23)NC(=O)[C@H](Cc2ccc(O)cc2)NC(=O)[C@H](CCC(=O)O)NC(=O)[C@](C)(NC(=O)[C@H](Cc2ccccc2)NC(=O)[C@@H](NC(=O)[C@H](CC(C)C)NC(=O)C(C)(C)C)[C@@H](C)O)CCCCCCC=CCCC[C@@](C)(C(=O)N[C@@H](CO)C(=O)N[C@@H](C)C(=O)N[C@@H](C)C(N)=O)NC1=O [compound 284]	5	5	6				
